# Data: PMC6127852 (Journal of Enzyme Inhibition and Medicinal Chemistry, 2018)
# Experiments:
# [1] = tested on: polyA-polyU (RNA, polymer) A/U; assay: UV melting at 260 nm; details: PBS, I = 0.05 M, cations not specified, pH 7, r = 0.3 [compound]/[polynucleotide]
# [2] = tested on: polyA-polyU (RNA, polymer) A/U; assay: UV-Vis titration, Scatchard; details: PBS; for log Ks: I = 0.05 M (Table 1 says I = 0.015 M), cations not specified, I = 0.015 M (Methods: 0.05 M)
# [3] = tested on: polyG-polyC (polyC-polyG) (RNA, polymer) G/C; assay: UV-Vis titration, Scatchard; details: PBS; for log Ks: I = 0.05 M (Table 1 says I = 0.015 M), cations not specified, I = 0.015 M (Methods: 0.05 M)
# S. aureus MRSA = assay: Broth microdilution MIC, MRSA clinical strain; format: cell-based; details: Staphylococcus aureus, antibiotic-resistant clinical strain
# Method: (§1) The compounds were evaluated for their in vitro anti-bacterial activity against Gram-positive bacteria: S. aureus (ATCC 25923), MRSA, methicillin-sensitive S. aureus (MSSA), E. faecalis, vancomycin-resistant E. faecium (VREF), and Gram-negative bacteria: E. coli (ATCC 25925), P. aeruginosa (ATCC 27853), A. baumannii (ATCC 19606) and ESBL-producing K. pneumoniae (ATCC 27736). Standard broth microdilution method as recommended in guidelines of Clinical and Laboratory Standards Institute[61] ^, [65] ^, [66] was applied and the minimum inhibitory concentration (MIC) of compounds was tested. In short, testing was performed in U-bottomed 96-well sterile plastic microdilution trays (Falcon 3077, Becton Dickinson Labware, Franklin Lakes, NJ) in cation (Ca^2+ and Mg^2+) adjusted Mueller–Hinton broth medium (Becton Dickinson and Co., Cockeysville, MD). All testings were performed in triplicate.
# S. aureus MSSA = assay: Broth microdilution MIC, MSSA clinical strain; format: cell-based; details: Staphylococcus aureus
# Method: as §1
# E. faecium VRE = assay: Broth microdilution MIC, VRE clinical strain; format: cell-based; details: Enterococcus faecium
# Method: as §1
# S. aureus ATCC 25923 = assay: Broth microdilution MIC, S. aureus ATCC 25923; format: cell-based; details: Staphylococcus aureus, ATCC25923; Table S2
# Method: as §1
# (§2) The in vitro anti-bacterial activity of 5-amidinobenzimidazoles 7a–7e, 8a–8e, and 9a–9e was tested against Gram-positive bacteria including S. aureus (ATCC 25923), Enterococcus faecalis (ATCC 29212), and Gram-negative bacteria including E. coli (ATCC 25925), K. pneumoniae (ATCC 700803), P. aeruginosa (ATCC 27853), and Acinetobacter baumannii (ATCC 19606).
# E. faecalis ATCC 29212 = assay: Broth microdilution MIC, E. faecalis ATCC 29212; format: cell-based; details: Enterococcus faecalis, ATCC29212; Table S2
# Method: as §1, §2
# calf thymus ctDNA = assay: UV–Vis titration with ctDNA (Scatchard); format: binding; details: for Hypochromic effect H/%, ctDNA: UV–Vis titration, calculated by Scatchard equation; for Hypochromic effect H/%, ctDNA / log Ks, ctDNA: PBS, pH 7; for log Ks, ctDNA: binding constant, Scatchard
# Method: (§3) Polynucleotides were purchased as follows: polyG–polyC, polyA–polyU (Sigma-Aldrich, St. Louis, MO), calf thymus ctDNA (Aldrich). Polynucleotides were dissolved in PBS buffer, I = 0.05 mol dm^−3, pH 7.0. The calf thymus ctDNA was additionally sonicated and filtered through a […] filter. The polynucleotide concentration was spectroscopically determined as the concentration of nucleobases.
# (§4) All UV–Vis absorbance measurements were conducted on a Perkin Elmer Lambda 25 spectrophotometer (Perkin Elmer, Waltham, MA). A quartz cell with a 1 cm path length was used for all absorbance studies. Compound stock solutions were 1 mM. The DNA/RNA at increasing ratios was then titrated into the compound buffer solution (1.48 × 10^−5 mol dm^−3) and the corresponding absorption spectra were recorded under the same conditions. All data were graphed and analysed using Origin software version 9.0 (OriginLab Corporation, Northampton, MA). The stability constants (Ks) and [bound compound]/[polynucleotide phosphate] ratios (n) were calculated according to the Scatchard Equation[63] ^, [64]. Values for Ks and n given in Table 1 all have satisfying correlation coefficients (0.99).
# (§5) The binding constants logKs and the density of the binding sites n were calculated using Scatchard plot analysis. In addition, the binding constants Ks for compounds 8b and 8e were calculated only for titration data taken at the r ≥ 0.1, because below that ratio changes in absorption maxima were too small for accurate calculation (ΔA ≤ 0.04) (Table 1). The binding constants Ks and ratios n obtained by processing UV–Vis titration data using the Scatchard equation are summarised in Table 1.
# polyA-polyU [4] = assay: UV–Vis titration with polyA-polyU (Scatchard); format: binding; details: PBS, pH 7; for Hypochromic effect H/%, polyA-polyU: UV–Vis titration, calculated by Scatchard equation; for log Ks, polyA-polyU: binding constant, Scatchard
# Method: as §3, §4, §5
# polyC-polyG = assay: UV–Vis titration with polyC-polyG (Scatchard); format: binding; details: PBS, pH 7; for Hypochromic effect H/%, polyC-polyG: UV–Vis titration, calculated by Scatchard equation; for log Ks, polyC-polyG: binding constant, Scatchard
# Method: as §3, §4, §5
# ctDNA = assay: Thermal melting (ΔTm) of ctDNA; format: binding, calf; details: PBS, pH 7; for ΔTm, ctDNA, r = 0.3: r = [compound]/[polynucleotide] 0.3, error ±0.5 °C
# Method: (§6) T m experiments were conducted with a Perkin Elmer Lambda 25 spectrophotometer in 1 cm quartz cuvettes. The absorbance of the DNA/RNA-compound complex was monitored at 260 nm as a function of temperature. The absorbance of the ligands was subtracted from every curve, and the absorbance scale was normalised. The ΔT m values were calculated by subtracting T m of the free nucleic acid from T m of the complex. Every reported ΔT m value was the average of at least two measurements. The error of ΔT m is ±0.5 °C. All data were graphed and analysed using Origin software version 9.0.
# (§7) Denaturation experiments were carried out at different amounts of the compounds (r = 0.1, 0.3, 0.5, and 0.7 eq; r = [compound]/[polynucleotide]) with ctDNA and polyA-polyU.
# polyA-polyU [5] = assay: Thermal melting (ΔTm) of polyA-polyU; format: binding; details: for ΔTm, polyA-polyU, r = 0.1: PBS, pH 7; for ΔTm, polyA-polyU, r = 0.3 / ΔTm, polyA-polyU, r = 0.5: first melting midpoint
# Method: as §6, §7
# E. coli ATCC 25925 = assay: Broth microdilution MIC, E. coli ATCC 25925; format: cell-based; details: Escherichia coli, ATCC25925; Table S2
# Method: as §1, §2
# K. pneumonia ATCC 700803 = assay: Broth microdilution MIC, K. pneumoniae ATCC 700803; format: cell-based; details: Klebsiella pneumoniae, ATCC700803; Table S2
# Method: as §1, §2
# P. aeruginosa ATCC 27853 = assay: Broth microdilution MIC, P. aeruginosa ATCC 27853; format: cell-based; details: Pseudomonas aeruginosa, ATCC27853; Table S2
# Method: as §1, §2
# A. baumannii ATCC 19606 = assay: Broth microdilution MIC, A. baumannii ATCC 19606; format: cell-based; details: Acinetobacter baumannii, ATCC19606; Table S2
# Method: as §1, §2
# [6] = tested on: bloodstream form T. brucei (strain 221); assay: Anti-trypanosomal screening, resazurin; format: cell-based; details: Trypanosoma brucei, mean of triplicate ± SEM
# Method: Bloodstream form T. brucei (strain 221) were cultured in modified Iscove’s medium, as outlined[67] and trypanocidal assays were performed using 96-well microtitre plates. […] Resazurin was added after 48 h, the plates incubated for a further 16 h, and then read in a Spectramax plate reader (Molecular Devices Corporation, San Jose, CA). The data were analysed using GraphPad Prism (GraphPad, La Jolla, CA). Each drug concentration was tested in triplicate.
# [7] = pH 7, changes too small for accurate calculation, compound 14.8 µM
Structure (SMILES),"log Ks ([2]; pH 7, per base)",MIC (S. aureus MRSA),MIC (S. aureus MSSA),MIC (E. faecium VRE),MIC (S. aureus ATCC 25923),MIC (E. faecalis ATCC 29212),"Hypochromic effect H/%, ctDNA (calf thymus ctDNA)","Hypochromic effect H/%, polyA-polyU (polyA-polyU [4])","log Ks, polyA-polyU (polyA-polyU [4])","log Ks, polyC-polyG (polyC-polyG)","ΔTm, ctDNA, r = 0.5 (ctDNA)","ΔTm, ctDNA, r = 0.7 (ctDNA)","ΔTm, ctDNA, r = 0.3 (ctDNA)","ΔTm, polyA-polyU, r = 0.1 (polyA-polyU [5])","ΔTm, polyA-polyU, r = 0.3 (polyA-polyU [5])","ΔTm, polyA-polyU, r = 0.5 (polyA-polyU [5])",MIC (E. coli ATCC 25925),MIC (K. pneumonia ATCC 700803),MIC (P. aeruginosa ATCC 27853),MIC (A. baumannii ATCC 19606),also measured
CC(C)NC(=N)c1ccc2nc(-c3ccc(OCc4cn(CSc5ccccc5)nn4)cc3)[nH]c2c1,5.96,–,–,–,–,–,–,–,–,–,–,–,–,–,–,–,–,–,–,–,"ΔTm ([1]; error ±0.5 (shift within error), per base): 0.23 °C; log Ks ([3]; pH 7, per base): 7.20"
"CNC(C)C1CCC(N)C(OC2C(N)CC(N)C(OC3OCC(C)(O)C(NC)C3O)C2O)O1 (stereo not drawn) [Gentamicin, gentamicin, reference compound]",–,0.25 µg/mL,0.125 µg/mL,0.25 µg/mL,0.125 µg/mL,8 µg/mL,–,–,–,–,–,–,–,–,–,–,–,–,–,–,–
CC(C)NC(=N)c1ccc2[nH]c(-c3ccc(OCc4cn(-c5ccccc5)nn4)cc3)nc2c1 [Compound 8a],5.87,8 µg/mL,128 µg/mL,128 µg/mL,128 µg/mL,256 µg/mL,41.0%,46.5%,5.87,6.17,3.94 °C,4.25 °C,3.35 °C,0.32 °C,0.64 °C,1.11 °C,256 µg/mL,> 256 µg/mL,> 256 µg/mL,> 256 µg/mL,"log Ks, ctDNA (calf thymus ctDNA): 6.17; Hypochromic effect H/%, polyC-polyG (polyC-polyG): 5.86%; IC50 [6]: 7.1 ± 0.7 µM; IC90 [6]: 16.7 ± 1.2 µM; ΔTm ([1]; error ±0.5, per base): 0.64 °C; log Ks ([3]; pH 7, n fixed, per base): 6.17"
CC(C)NC(=N)c1ccc2[nH]c(-c3ccc(OCc4cn(Cc5ccccc5)nn4)cc3)nc2c1 [Compound 8d],6.13,32 µg/mL,64 µg/mL,64 µg/mL,64 µg/mL,128 µg/mL,41.2%,53.8%,6.13,5.54,3.32 °C,3.63 °C,1.76 °C,0.91 °C,0.51 °C,0.72 °C,> 256 µg/mL,> 256 µg/mL,> 256 µg/mL,> 256 µg/mL,"log Ks, ctDNA (calf thymus ctDNA): 5.93; IC50 [6]: 12.9 ± 0.2 µM; IC90 [6]: 21.6 ± 0.4 µM; log Ks ([3]; pH 7, n fixed, per base): 5.54"
"CC(C)NC(=N)c1ccc2[nH]c(-c3ccc(OCc4cn(CSc5ccccc5)nn4)cc3)nc2c1.Cl.Cl [Compound 8e, N-isopropyl-2–(4-((1-(phenylthiomethyl)-1H-1,2,3-triazol-4-yl)methoxy)phenyl)-1H-benz[d]imidazole-5-carboximidamide dihydrochloride]",–,8 µg/mL,64 µg/mL,64 µg/mL,64 µg/mL,256 µg/mL,44.2%,47.2%,5.96,7.20,1.72 °C,1.71 °C,2.22 °C,0.52 °C,0.23 °C,0.26 °C,256 µg/mL,> 256 µg/mL,> 256 µg/mL,> 256 µg/mL,"log Ks, ctDNA (range r ≥ 0.1) (calf thymus ctDNA; footnote f: mixed binding mode, calculated in range r ≥ 0.1): 6.39; Hypochromic effect H/%, polyC-polyG (polyC-polyG): 5.96%; IC50 [6]: 13.5 ± 0.8 µM; IC90 [6]: 22.5 ± 0.3 µM; melting point: 152 to 154 °C"
"O=C(O)c1cn(C2CC2)c2cc(N3CCNCC3)c(F)cc2c1=O [Ciprofloxacin, ciprofloxacin, reference compound]",–,–,–,–,–,–,–,–,–,–,–,–,–,–,–,–,0.004 µg/mL,0.06 µg/mL,0.5 µg/mL,0.06 µg/mL,–
COc1ccc(-n2cc(COc3ccc(-c4nc5ccc(C6=NCCN6)cc5[nH]4)cc3)nn2)cc1,–,–,–,–,–,–,–,–,–,–,–,–,–,–,–,–,–,–,–,–,"ΔTm ([1]; error ±0.5, biphasic, second midpoint 36.08, per base): 2.67 °C; log Ks ([2]; pH 7, n fixed, per base): 5.46; binding [3, 7]: weak"
COc1ccc(-n2cc(COc3ccc(-c4nc5ccc(C(=N)N)cc5[nH]4)cc3)nn2)cc1,–,–,–,–,–,–,–,–,–,–,–,–,–,–,–,–,–,–,–,–,"binding [2, 7]: weak; log Ks ([3]; pH 7, per base): 6.27"
"CC1(C)S[C@@H]2[C@H](NC(=O)[C@H](N)c3ccccc3)C(=O)N2[C@H]1C(=O)O [Ampicillin, ampicillin, reference compound]",–,4 µg/mL,1 µg/mL,1 µg/mL,1 µg/mL,2 µg/mL,–,–,–,–,–,–,–,–,–,–,–,–,–,–,–
